One experiment concerns the target Cannabinoid receptor 1 (Homo sapiens, UniProt P21554). The experiment is described as follows: (§1) cAMP Assay : Cells plated the day prior to the assay in clear bottom plates were viewed on an inverse microscope to ensure confluency in the range of 60-75%. The following mixtures and buffer solutions were prepared: (a) Buffer 1: HBSS (Mediatech Cat#21-023-CV) with 5 mM HEPES ([…], Gibco BRL Cat#15630-056) and 0.1% BSA (7.5% stock, Invitrogen Cat#15260-037); (b) Buffer 2: 0.5 mM IBMX (200 mM stock in DMSO, Sigma 15879) in Buffer 1; (c) 1 μM cAMP Standard (50 μM stock, Perkin Elmer Cat# AD0262) diluted in Buffer 2 and serially diluted in Buffer 2, 12 doses @ ½ dilutions resulting in a dose range of 1 μM to 0.5 nM; (d) d2 labelled cAMP (CisBio HTRF Detection Kit Cat #62AM4PEB reconstituted with 6 mL d-H2O) diluted 1/20 with lysis buffer (CisBio HTRF Detection Kit Cat #62AM4PEB); (e) anti-cAMP (CisBio HTRF Detection Kit Cat # 62AM4PEB reconstituted with 5 mL d-H2O) diluted 1/20 with lysis buffer (CisBio HTRF Detection Kit Cat #62AM4PEB); and (f) Forskolin (Sigma Cat# F6886, 10 mM in DMSO) diluted first in DMSO to 1 mM and then to 1.5 μM in Buffer 2.
Chain of Cannabinoid receptor 2 (P34972 whole entry): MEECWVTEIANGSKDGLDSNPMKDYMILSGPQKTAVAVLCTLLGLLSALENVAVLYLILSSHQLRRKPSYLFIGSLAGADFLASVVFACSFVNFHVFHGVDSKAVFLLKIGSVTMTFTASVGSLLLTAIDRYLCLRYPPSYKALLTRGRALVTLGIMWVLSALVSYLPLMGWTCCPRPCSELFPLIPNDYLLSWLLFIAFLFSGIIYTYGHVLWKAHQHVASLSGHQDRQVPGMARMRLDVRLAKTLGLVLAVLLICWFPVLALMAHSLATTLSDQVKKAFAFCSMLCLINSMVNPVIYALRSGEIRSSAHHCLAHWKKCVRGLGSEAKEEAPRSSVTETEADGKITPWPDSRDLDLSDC
Chain of Cannabinoid receptor 1 (P21554 whole entry): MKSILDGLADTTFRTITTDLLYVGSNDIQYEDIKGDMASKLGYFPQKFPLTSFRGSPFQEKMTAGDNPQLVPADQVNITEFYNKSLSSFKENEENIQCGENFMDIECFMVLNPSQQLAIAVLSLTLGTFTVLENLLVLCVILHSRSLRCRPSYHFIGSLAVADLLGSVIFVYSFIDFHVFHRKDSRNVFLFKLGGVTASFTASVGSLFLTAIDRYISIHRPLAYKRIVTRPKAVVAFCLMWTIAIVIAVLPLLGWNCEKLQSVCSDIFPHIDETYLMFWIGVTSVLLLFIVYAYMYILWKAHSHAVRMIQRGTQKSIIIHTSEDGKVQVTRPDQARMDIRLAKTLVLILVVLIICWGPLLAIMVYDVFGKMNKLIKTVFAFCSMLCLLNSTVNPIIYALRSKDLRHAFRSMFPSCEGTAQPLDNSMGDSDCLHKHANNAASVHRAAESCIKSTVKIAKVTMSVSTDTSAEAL
For the molecule `COCCOCCOCCOCCOCCOCCOCCOc1cc(NC2CCN(S(=O)(=O)C(F)(F)F)CC2)c2cc(C(c3ccc(Cl)cc3)c3ccc(Cl)cc3)ccc2n1`, the EC50 turned out to be 480 nM.
On to `COCCOCCOCCOCCOc1cc(NC2CCN(S(=O)(=O)C(F)(F)F)CC2)c2cc(C(c3ccc(Cl)cc3)c3ccc(Cl)cc3)ccc2n1`, for which the EC50 was found to be 56 nM.
Regarding `NNC(=O)CCOCCOCCOCCOCCOCCOCCOCCOCCOCCNC(=O)CCCCCOc1cc(NC2CCN(S(=O)(=O)C(F)(F)F)CC2)c2cc(C(c3ccc(Cl)cc3)c3ccc(Cl)cc3)ccc2n1`, the concentration for a half-maximal effect (EC50) came out at 33 nM.
On to `NCCOCCOCCOCCOCCOCCOCCOCCOCCOCCOCCOCCOc1cc(NC2CCN(S(=O)(=O)C(F)(F)F)CC2)c2cc(C(c3ccc(Cl)cc3)c3ccc(Cl)cc3)ccc2n1`, for which the EC50 was found to be 36 nM.
On the same count and under the same terms, the same measure for `O=S(=O)(N1CCC(Nc2ccnc3c(OCCOCCOCCOCCOCCOCCOCCOCCOCCOCCO)cc(C(c4ccc(Cl)cc4)c4ccc(Cl)cc4)cc23)CC1)C(F)(F)F`: 68 nM; for `CC(C)(C)OC(=O)NCCOCCOCCOCCOCCOCCOCCOCCOCCOCCOCCOCCOc1cc(NC2CCN(S(=O)(=O)C(F)(F)F)CC2)c2cc(C(c3ccc(Cl)cc3)c3ccc(Cl)cc3)ccc2n1`: 1800 nM; for `COCCOCCOCCOCCn1c(=O)c(N2CCN(c3ccccc3)CC2)cc2cc(C(c3ccc(Cl)cc3)c3ccc(Cl)cc3)ccc21`: 350 nM.
For the molecule `COCCOCCOCCOCCOCCOCCOCCn1c(=O)cc(NC2CCN(S(=O)(=O)C(F)(F)F)CC2)c2cc(C(c3ccc(Cl)cc3)c3ccc(Cl)cc3)ccc21`, the half-maximal effective concentration (EC50) turned out to be 4910 nM.
With `CC(C)(C)OC(=O)CCOCCOCCOCCOCCOCCOCCOCCOCCOCCOCCOCCOCCOc1cc(C(c2ccc(Cl)cc2)c2ccc(Cl)cc2)cc2c(NC3CCN(S(=O)(=O)C(F)(F)F)CC3)ccnc12`, the concentration for a half-maximal effect (EC50) was 460 nM.

The next experiment addresses Cannabinoid receptor 2 (Homo sapiens, UniProt P34972). The experiment is described as §1.
`COCCOCCOCCOCCOCCOCCOCCOc1cc(NC2CCN(S(=O)(=O)C(F)(F)F)CC2)c2cc(C(c3ccc(Cl)cc3)c3ccc(Cl)cc3)ccc2n1`: the concentration for a half-maximal effect (EC50) stood at 5570 nM.
Take `COCCOCCOCCOCCOc1cc(NC2CCN(S(=O)(=O)C(F)(F)F)CC2)c2cc(C(c3ccc(Cl)cc3)c3ccc(Cl)cc3)ccc2n1`: the EC50 was found to be 7400 nM.
Turning to `NNC(=O)CCOCCOCCOCCOCCOCCOCCOCCOCCOCCNC(=O)CCCCCOc1cc(NC2CCN(S(=O)(=O)C(F)(F)F)CC2)c2cc(C(c3ccc(Cl)cc3)c3ccc(Cl)cc3)ccc2n1`, the concentration giving a half-maximal response (EC50) was 1260 nM.
On to `NCCOCCOCCOCCOCCOCCOCCOCCOCCOCCOCCOCCOc1cc(NC2CCN(S(=O)(=O)C(F)(F)F)CC2)c2cc(C(c3ccc(Cl)cc3)c3ccc(Cl)cc3)ccc2n1`, for which the EC50 was determined as 4300 nM.
With `O=S(=O)(N1CCC(Nc2ccnc3c(OCCOCCOCCOCCOCCOCCOCCOCCOCCOCCO)cc(C(c4ccc(Cl)cc4)c4ccc(Cl)cc4)cc23)CC1)C(F)(F)F`, the concentration for a half-maximal effect (EC50) was 1900 nM.
Same read-out and setting: the result for `CC(C)(C)OC(=O)NCCOCCOCCOCCOCCOCCOCCOCCOCCOCCOCCOCCOc1cc(NC2CCN(S(=O)(=O)C(F)(F)F)CC2)c2cc(C(c3ccc(Cl)cc3)c3ccc(Cl)cc3)ccc2n1` reads above 10000 nM.
For `COCCOCCOCCOCCn1c(=O)c(N2CCN(c3ccccc3)CC2)cc2cc(C(c3ccc(Cl)cc3)c3ccc(Cl)cc3)ccc21`, the EC50 was 5510 nM.
On to `COCCOCCOCCOCCOCCOCCOCCn1c(=O)cc(NC2CCN(S(=O)(=O)C(F)(F)F)CC2)c2cc(C(c3ccc(Cl)cc3)c3ccc(Cl)cc3)ccc21`, for which the concentration giving a half-maximal response (EC50) was above 10000 nM.
Regarding `CC(C)(C)OC(=O)CCOCCOCCOCCOCCOCCOCCOCCOCCOCCOCCOCCOCCOc1cc(C(c2ccc(Cl)cc2)c2ccc(Cl)cc2)cc2c(NC3CCN(S(=O)(=O)C(F)(F)F)CC3)ccnc12`, the EC50 was 2250 nM.

For the origin of these results see ChEMBL document CHEMBL5726588, “Chemically modified quinoline and quinolone derivatives useful as CB-1 inverse agonists” (2017).
